Values after ≈ are worked out from the molar mass of the structure shown.
Assay: Aqueous solubility of the compound in Britton-Robinson buffer after 48 hrs at pH 6.5 by UV-vis spectrophotometry based shake flask method
Format: physicochemical

SMILES: O=C(O)Cn1ccc2ccc(-c3cn(-c4ccc(O)c(F)c4)nn3)nc2c1=O
- solubility thermodynamic at 48 h: 288 µg/mL (≈ 755 µM)
